Converted amounts (≈) assume the structure as drawn.
Assays:
[1] = system: peptic ulcer induced by water immersion restraint stress; experiment: Inhibitory action against the peptic ulcer induced by water immersion restraint stress; format: in vivo; conditions: Rattus norvegicus; SD male rats, 32 mg/kg oral, water immersion restraint stress 23° C., 7 hours; read-out: Inhibitory action against stress peptic ulcer, Percent inhibition of p.u. formation
Method: (1) Inhibitory action against the peptic ulcer induced by water immersion restraint stress
(§1) SD male rats (weighing 200-300 g) were fasted for 24 hours before oral administration of a thiourea derivative of the invention at a dose of 32 mg/kg bodyweight. One hour later, the animal was put in a stress cage and loaded with water immersion restraint stress in a water bath at 23° C. Seven hours after loading with the stress, the rate was sacrificed with ether, and the stomach was excised and treated with formalin. Area (mm^2 ) of the lesions developed in the glandular stomach area was then measured. Results were expressed in sum of the lesions per animal which was referred to as peptic ulcer index.
(§2) It was confirmed that the thiourea derivatives of the invention not shown in the table also have a similar antiulcer activity.
Percent inhibition of the peptic ulcer formation (%) as shown in the table was calculated according to the following equation: [formula]

Helicobacter pylori = experiment: Antimicrobial activity against Helicobacter pylori (MIC); format: cell-based, Helicobacter pylori strain NCTC 11916; conditions: NCTC11916, strain NCTC 11916, twofold dilution, 37° C., 3-5 days, O2 about 5%
Method: (3) Antimicrobial activity against Helicobacter pylori
Antimicrobial activity of the thiourea derivatives according to the invention against Helicobacter pylori (or Campylobacter pylori) was evaluated by employing strain NCTC 11916 as a Helicobacter test organism and determining MIC (minimum inhibitory concentration) for the strain with the thiourea derivative.
The Helicobacter pylori was pre-incubated in a plate medium for 3-5 days. The medium was prepared by dissolving 38 g of a Mueller-Hinton medium (manufactured by Difco) in an appropriate amount of distilled water, sterilizing the solution in an autoclave, adding to the solution 50 ml of a horse hemolysis solution (manufactured by Nippon Seibutu Zairyou Center: Horse defibrinized blood, hemolyzed by a lyophilization treatment) and 2 ml of Skirrow, a Campylobacter selective supplement (manufactured by OXOID) containing vancomycin (5 mg), trimethoprim (2.5 mg) and polymyxin B (1250 IU) per vial (2 ml), and further an appropriate amount of distilled water to a volume of 1L in total and expanding and solidifying the solution on a dish. These antibiotics were contained for inhibition of the growth of microorganism other than Helicobacter pylori. The Helicobacter pylori pre-incubated under slightly aerobic conditions (an O2 concentration of about 5%) at 37° C. for 3-5 days was suspended in a physiological saline solution in a concentration of approximately 10^8 organisms/ml. Approximately 10-20 μl of the suspension was inoculated on a medium for MIC measurement in cross streaks. […] The DMSO solution was formed by the twofold dilution method. As in the pre-incubation, the Helicobacter pylori was cultured under slightly aerobic conditions at 37° C. for 3-5 days. After completion of the culture, growth of the microoranisms on the streaks was visually determined. The minimum concentration of the thiourea derivative in which no growth was observed was taken as MIC.
It was confirmed that the thiourea derivatives of the invention not shown in the table also have a similar antimicrobial activity.

ethanol peptic ulcer = experiment: Inhibitory action against ethanol peptic ulcer; format: in vivo; conditions: Rattus norvegicus; SD male rats, 32 mg/kg oral, 1 hour before ethanol 0.5 ml/100 g; read-out: Inhibitory action against ethanol peptic ulcer, Percent inhibition of p.u. formation
Method: (2) Inhibitory action against ethanol peptic ulcer
as §1, with “ethanol” for “the animal”, “orally given” for “put”, “volume of 0.5 ml/100 g bodyweight. One hour after treating” for “stress cage and loaded”, “ethanol,” for “water immersion restraint stress in a water bath at 23° C. Seven hours after loading with”, “rat” for “stress, the rate”, “(mm^2)” for “(mm^2 )”
as §2
Percent inhibition of the peptic ulcer formation (%) as shown in the table was calculated according to the same equation as mentioned above.

Compound | MIC (Helicobacter pylori) [µg/mL] | inhibition in vivo at 32 mg/kg [1] [%] | inhibition in vivo at 32 mg/kg (ethanol peptic ulcer) [%]
O=C(CCCNC(=S)NCCc1ccccc1)NCCCOc1cccc(CN2CCCCC2)c1 [Example 6] | 6.25 (≈ 12.6 µM) | 76.9 | 84.4
CCCCNC(=S)NCCCC(=O)NCCCOc1cccc(CN2CCCCC2)c1 [Example 2] | 6.25 (≈ 13.9 µM) | 67.1 | 75.7
O=C(CCCNC(=S)Nc1ccc(Cl)cc1)NCCCOc1cccc(CN2CCCCC2)c1 [Example 4, 1-[3-[N-[3-[3-(piperidinomethyl)phenoxy]propyl]carbamoyl]propyl]-3-(p-chlorophenyl)thiourea] | 6.25 (≈ 12.4 µM) | 74.6 | 78.2
O=C(CCCNC(=S)Nc1cccc2ccccc12)NCCCOc1cccc(CN2CCCCC2)c1 [Example 7, 1-[3-[N-[3-[3-(piperidinomethyl)phenoxy]-propyl]carbamoyl]propyl]-3-(1-naphthyl)thiourea] | 6.25 (≈ 12 µM) | 88.3 | 92
O=C(CCCNC(=S)Nc1cccnc1)NCCCOc1cccc(CN2CCCCC2)c1 [Example 8] | 12.5 (≈ 26.6 µM) | 82.2 | 65
CNC(=S)NCCCC(=O)NCCCOc1cccc(CN2CCCCC2)c1 [Example 1, 1-[3-[N-[3-[3-(piperidinomethyl)phenoxy]propyl]carbamoyl]propyl]-3-methylthiourea] | 6.25 (≈ 15.4 µM) | 92.1 | 51.4
Cc1ccccc1NC(=S)NCCCC(=O)NCCCOc1cccc(CN2CCCCC2)c1 [Example 10, 1-[3-[N-[3-[3-(piperidinomethyl)phenoxyl]propyl]carbamoyl]propyl]-3-(O-methylphenyl)thiourea] | 6.25 (≈ 12.9 µM) | 82.2 | 94.2
O=C(CCCNC(=S)NC1CCCCC1)NCCCOc1cccc(CN2CCCCC2)c1 [Example 5, 1-[3-[N-[3-[3-(piperidinomethyl)phenoxy]propyl]carbamoyl]propyl]-3-cyclohexylthiourea] | 6.25 (≈ 13.2 µM) | 70.5 | 82.3
O=C(CCCNC(=S)Nc1ccccc1)NCCCOc1cccc(CN2CCCC2)c1 [Example 9, 1-[3-[N-[3-[3-(pyrrolidinomethyl)phenoxy]propyl]carbamoyl]propyl]-3-phenylthiourea] | 6.25 (≈ 13.7 µM) | 58.6 | 77.9
O=C(CCCNC(=S)Nc1ccccc1)NCCCOc1cccc(CN2CCCCC2)c1 [Example 3, 1-[3-[N-(3-[3-(piperidinomethyl)phenoxy]propyl]carbamoyl]propyl]-3-phenylthiourea] | 12.5 (≈ 26.7 µM) | 80.5 | 88.7

The next lines start with results.

MIC (Helicobacter pylori) [µg/mL] | Compound | inhibition in vivo at 32 mg/kg [1] [%] | inhibition in vivo at 32 mg/kg (ethanol peptic ulcer) [%]
6.25 (≈ 13.2 µM) | O=C(CCCNC(=S)NCc1ccco1)NCCCOc1cccc(CN2CCCCC2)c1 [Example 26, 1-[3-[N-[3-[3-(piperidinomethyl)phenoxy]propyl]carbamoyl]propyl]-3-furfurylthiourea] | 74.4 | 90.3
6.25 (≈ 12.2 µM) | CC(C)c1ccc(NC(=S)NCCCC(=O)NCCCOc2cccc(CN3CCCCC3)c2)cc1 [Example 13, 1-[3-[N-[3-[3-(piperidinomethyl)phenoxy]propyl]carbamoyl]propyl]-3-(p-isopropylphenyl)thiourea] | 77.3 | 90.2
6.25 (≈ 11.6 µM) | O=C(CCCNC(=S)Nc1ccccc1C(F)(F)F)NCCCOc1cccc(CN2CCCCC2)c1 [Example 22, 1-[3-[N-[3-[3-(piperidinomethyl)phenoxy]propyl]carbamoyl]propyl]-3-(2-trifluoromethylphenyl)thiourea] | 83.3 | 76.4
12.5 (≈ 23.6 µM) | COCOc1ccccc1NC(=S)NCCCC(=O)NCCCOc1cccc(CN2CCCCC2)c1 [Example 24, 1-[3-[N-[3-[3-(piperidinomethyl)phenoxy]propyl]carbamoyl]propyl]-3-(2-methoxymethoxyphenyl)thiourea] | 60.3 | 70.3
6.25 (≈ 12.2 µM) | COc1cccc(C)c1NC(=S)NCCCC(=O)NCCCOc1cccc(CN2CCCCC2)c1 [Example 19, 1-[3-[N-[3-[3-(piperidinomethyl)phenoxy]propyl]carbamoyl]propyl]-3-(2-methoxy-6-methylphenyl)thiourea] | 90.1 | 94.6
6.25 (≈ 11.6 µM) | CCCCOc1ccccc1NC(=S)NCCCC(=O)NCCCOc1cccc(CN2CCCCC2)c1 [Example 16, 1-[3-[N-[3-[3-(piperidinomethyl)phenoxy]propyl]carbamoyl]propyl]-3-(O-n-buthoxyphenyl)thiourea] | 71.7 | 93.3
6.25 (≈ 12.1 µM) | CSc1ccccc1NC(=S)NCCCC(=O)NCCCOc1cccc(CN2CCCCC2)c1 [Example 21, 1-[3-[N-[3-[3-(piperidinomethyl)phenoxy]propyl]carbamoyl]propyl]-3-(2-methylthiophenyl)thiourea] | 85.5 | 81.1
6.25 (≈ 12.5 µM) | COc1ccccc1NC(=S)NCCCC(=O)NCCCOc1cccc(CN2CCCCC2)c1 [Example 14, 1-[3-[N-[3-[3-(piperidinomethyl)phenoxy]propyl]-carbamoyl]propyl]-3-(O-methoxyphenyl)thiourea] | 91.2 | 94.3
6.25 (≈ 12.2 µM) | O=C(CCCNC(=S)Nc1ccccc1[N+](=O)[O-])NCCCOc1cccc(CN2CCCCC2)c1 [Example 23, 1-[3-[N-[3-[3-(piperidinomethyl)phenoxy]propyl]carbamoyl]propyl]-3-(O-nitrophenyl)thiourea] | 76.4 | 72.3
6.25 (≈ 12.5 µM) | COc1ccc(NC(=S)NCCCC(=O)NCCCOc2cccc(CN3CCCCC3)c2)cn1 [Example 25, 1-[3-[N-[3-[3-(piperidinomethyl)phenoxy]propyl]carbamoyl]propyl]-3-[3-(6-methoxypyridyl)]thiourea] | 65.6 | 72.5
6.25 (≈ 12.2 µM) | Cc1cc(C)c(NC(=S)NCCCC(=O)NCCCOc2cccc(CN3CCCCC3)c2)c(C)c1 [Example 12, 1-[3-[N-[3-[3-(piperidinomethyl)phenoxy]propyl]carbamoyl]propyl]-3-(2,4,6-trimethylphenyl)thiourea] | 77.1 | 80.2
6.25 (≈ 12.8 µM) | O=C(CCCNC(=S)NCc1cccs1)NCCCOc1cccc(CN2CCCCC2)c1 [Example 27, 1-[3-[N-[3-[3-(piperidinomethyl)phenoxy]propyl]carbamoyl]propyl]-3-(2-thienylmethyl)thiourea] | 72.5 | 88.2
6.25 (≈ 12.5 µM) | COc1cccc(NC(=S)NCCCC(=O)NCCCOc2cccc(CN3CCCCC3)c2)c1 [Example 15, 1-[3-[N-[3-[3-(piperidinomethyl)phenoxy]propyl]carbamoyl]propyl]-3-(3-methoxyphenyl)thiourea] | 78.3 | 92.1
6.25 (≈ 12.6 µM) | Cc1cc(C)cc(NC(=S)NCCCC(=O)NCCCOc2cccc(CN3CCCCC3)c2)c1 [Example 11, 1-[3-[N-[3-[3-(piperidinomethyl)phenoxy]propyl]carbamoyl]propyl]-3-(3,5-dimethylphenyl)thiourea] | 85.5 | 92.8

Reference: patent US5190961A, “Thiourea derivatives and antimicrobial agent and antulcer agent containing the same” (Terumo Kabushiki Kaisha, priority 1990, dated 1993)
